Consider eight compounds from PubChem BioAssay (NCI).

Where “and” joins values, the source holds several entries; their conditions need not be identical. Equal entries are not always repeated.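 Protocol summary: plate cells (96-well), add compound at 5 concentrations, incubate 48 h, interpolate endpoints linearly. GI50 marks 50% less growth. TGI marks complete inhibition of growth.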

Among the test systems are LOX IMVI melanoma; U251 CNS; M14 melanoma; HCC-2998 colon; RXF 393 renal; K-562 leukemia; 786-0 renal; DU-145 prostate; HT29 colon; SR leukemia.
What all share (experiment): NCI-60 cell line screen, 48 h

For the compound `C/C(=C(/c1ccc(O)cc1)c1ccc(OCCN2CCCC2)cc1)c1ccccc1`, the GI50 in the test with LOX IMVI melanoma is 1720 nM; in the test with U251 CNS, 2240 nM; with M14 melanoma, 1880 nM; in the test on HCC-2998 colon, 2340 nM; in the test on RXF 393 renal, 2000 nM; in the test on K-562 leukemia it was 1810 nM. Also, the GI50 in the test on 786-0 renal is 1860 nM; in the test on DU-145 prostate, 9720 nM; with HT29 colon, 1350 nM; in the test with SR leukemia, 1930 nM. Moreover, the TGI in the test on LOX IMVI melanoma is 3.29 µM; in the test on U251 CNS, 5.49 µM; with M14 melanoma it was 4.08 µM; in the test with HCC-2998 colon, 6.18 µM; in the test on RXF 393 renal it was 5.05 µM; in the test on K-562 leukemia it was 4.77 µM. Besides, the TGI in the test on 786-0 renal is 4.09 µM; in the test on DU-145 prostate it was 21.4 µM; in the test with HT29 colon, 3.2 µM; with SR leukemia it was 5.75 µM.

Consider `CC(C)(C)n1cc(-c2ccnc(NCCNS(=O)(=O)c3ccc(Br)cc3)c2)c(-c2cccc(O)c2)n1`, for which the GI50 in the test with LOX IMVI melanoma is 1750 nM; in the test on U251 CNS it was 1530 nM; in the test on M14 melanoma, 1770 nM; in the test on HCC-2998 colon it was 1840 nM; in the test on RXF 393 renal it was 1490 nM; in the test on K-562 leukemia, 573 nM. The GI50 in the test with 786-0 renal was 1720 nM; with DU-145 prostate, 2140 nM; with HT29 colon it was 1520 nM; with SR leukemia, 286 nM. Also, the TGI in the test on LOX IMVI melanoma was found to be 3.15 µM; with U251 CNS, 3.29 µM; with M14 melanoma, 3.4 µM; in the test on HCC-2998 colon, 3.53 µM; in the test with RXF 393 renal, 3.23 µM; in the test with K-562 leukemia, 2.85 µM. Besides, the TGI is 3.82 µM in the test on 786-0 renal, 4.86 µM with DU-145 prostate, 3.75 µM in the test on HT29 colon and 6.16 µM with SR leukemia.

In the case of `CCN(CC)CCC(=O)Nc1ccc(Cn2nnc3c2C(=O)c2nnn(Cc4ccc(NC(=O)CCN(CC)CC)cc4)c2C3=O)cc1`, the GI50 is 232 nM in the test on LOX IMVI melanoma; 254 nM with U251 CNS; 1490 nM with M14 melanoma; 316 nM with HCC-2998 colon; 3600 nM in the test on RXF 393 renal; 669 nM in the test on K-562 leukemia. In addition, the GI50 with 786-0 renal was 8970 nM; in the test on DU-145 prostate, 1050 nM; with HT29 colon it was 304 nM; in the test on SR leukemia, 507 nM. Also, the TGI in the test with LOX IMVI melanoma is 0.703 µM; in the test on U251 CNS, 0.688 µM; with M14 melanoma, 3.43 µM; in the test with HCC-2998 colon, 0.987 µM; with RXF 393 renal, 15.2 µM; in the test with K-562 leukemia, more than 37.9 µM. The TGI in the test with 786-0 renal was more than 72.3 µM; in the test with DU-145 prostate, 2.25 µM; in the test with HT29 colon, 0.787 µM; with SR leukemia, 5 µM.

Turning to `COc1ccccc1Cn1cc2c(c1)-c1oncc1CC2`, the GI50 was 946 nM in the test on LOX IMVI melanoma; 503 nM in the test with U251 CNS; 549 nM with M14 melanoma; 873 nM in the test with HCC-2998 colon; 1310 nM with RXF 393 renal; 391 nM with K-562 leukemia. Also, the GI50 in the test on 786-0 renal is 2440 nM; in the test on DU-145 prostate, 357 nM; with HT29 colon it was 351 nM; in the test with SR leukemia it was 379 nM. The TGI was 23.1 µM in the test with LOX IMVI melanoma; 39 µM with U251 CNS; more than 41.9 µM in the test with M14 melanoma; 6.87 µM in the test with HCC-2998 colon; more than 21.4 µM in the test on RXF 393 renal; more than 33.5 µM in the test on K-562 leukemia. In addition, the TGI is 29.7 µM in the test with 786-0 renal, 3.4 µM with DU-145 prostate, 11.7 µM in the test with HT29 colon and 8.95 µM with SR leukemia.

As for `Cc1c(C(C)C)cc(OCCO)cc1C(C)C`, the TGI in the test on LOX IMVI melanoma is 63.4 µM; in the test on U251 CNS it was more than 100 µM; in the test on M14 melanoma, more than 100 µM; in the test on HCC-2998 colon, more than 100 µM; in the test with RXF 393 renal it was 36.2 µM; in the test on K-562 leukemia it was more than 100 µM. Besides, the TGI with 786-0 renal was 63 µM; in the test with DU-145 prostate it was more than 100 µM; in the test on HT29 colon, 81.1 µM; in the test with SR leukemia it was 73.8 µM.

Consider `CCOP(=O)(OCC)/C(C#N)=C\c1cccc2ccccc12`, for which the TGI in the test with LOX IMVI melanoma is more than 59.4 µM; in the test with U251 CNS, more than 100 µM; with M14 melanoma, more than 100 µM; with HCC-2998 colon, more than 100 µM; in the test on RXF 393 renal it was more than 100 µM; with K-562 leukemia, more than 100 µM. In addition, the TGI with 786-0 renal was more than 100 µM; in the test with DU-145 prostate, more than 100 µM; with HT29 colon, more than 100 µM; in the test with SR leukemia, more than 75.1 µM.

For `CC1Cc2c(N(C)C)ncnc2N(C)c2ccc(Cl)cc21` (configuration not stated), the GI50 with LOX IMVI melanoma was 6000 nM; in the test with U251 CNS it was 4990 nM; in the test on M14 melanoma, 2390 nM; with HCC-2998 colon it was 6900 nM; with RXF 393 renal it was 2030 nM; with K-562 leukemia, 781 nM. Besides, the GI50 is 8260 nM with 786-0 renal, 5490 nM in the test on DU-145 prostate, 3220 nM in the test with HT29 colon and 463 nM in the test on SR leukemia. Moreover, the TGI in the test with LOX IMVI melanoma was 27.2 µM; with U251 CNS, 29.1 µM; in the test on M14 melanoma, more than 100 µM; with HCC-2998 colon, 37.3 µM; in the test with RXF 393 renal, 6.98 µM; with K-562 leukemia, more than 100 µM. Also, the TGI in the test with 786-0 renal is 29.3 µM; in the test with DU-145 prostate it was more than 100 µM; in the test on HT29 colon, 37 µM; with SR leukemia it was 20.3 µM.

Regarding `Cn1c(=O)n(-c2ccc(C(C)(C)C#N)cc2)c2c3cc(-c4cnc5ccccc5c4)ccc3ncc21`, the GI50 with LOX IMVI melanoma is < 10 nM and 5.22 nM; in the test on U251 CNS, < 11.7 nM and 5.99 nM and < 10 nM; with M14 melanoma, 18 nM and 6.56 nM and < 10 nM; with HCC-2998 colon it was < 10 nM and 6.1 nM; with RXF 393 renal, < 10 nM and 3.51 nM; with K-562 leukemia, 31.5 nM and 7.31 nM and 11.8 nM. For the same compound, the GI50 with 786-0 renal was < 11.8 nM and 5.42 nM and < 10 nM; in the test on DU-145 prostate it was < 10 nM and 5.75 nM; with HT29 colon, 10.1 nM and 6.03 nM and < 10 nM; in the test on SR leukemia, 38.6 nM and 5.51 nM and < 13.7 nM. The TGI was more than 100 µM in the test with LOX IMVI melanoma; 10.4 µM and > 10 µM and > 100 µM in the test on U251 CNS; more than 100 µM in the test on HCC-2998 colon; 0.0605 µM and 0.00781 µM and 0.0181 µM in the test with RXF 393 renal; more than 100 µM with K-562 leukemia; 33.8 µM and > 10 µM and > 100 µM with DU-145 prostate. In the test with SR leukemia, this compound came in with a TGI of more than 100 µM.
